{"source": "patent US20100298141A1", "about": "“SUBSTITUTED PYRIDINE N-OXIDE HERBICIDES” (E. I. DU PONT DE NEMOURS AND COMPANY, priority 2007, published 2010)", "key": {"corn (ZEAMD) [1]": {"test_system": "corn (ZEAMD)", "experiment": "Test J preemergence mixtures of Compound 2 with crop safeners", "type": "in vivo, Zea mays cv. ‘Pioneer 33G26’", "parameters": "key to ZEAMD Obsd. (observed effect): observed % herbicidal effect", "conditions": "Test J, alone", "excerpt": "(§1) Seeds of test plants consisting of winter wheat (TRZAW, Triticum aestivum) and corn (ZEAMD, Zea mays cv. ‘Pioneer 33G26’) were planted into a blend of loam soil and sand and treated preemergence with a directed soil spray using test chemicals formulated in a non-phytotoxic solvent mixture that included a surfactant. […] Balanced fertilizer was applied through the watering system. Treatments consisted of Compound 2 and the above mentioned safeners alone and in combination using a spray volume of 457 L/ha. Each treatment was replicated four times. […] A dash (-) response means no test result. Colby's Equation was used to determine the herbicidal effects expected from the mixtures. Colby's Equation (Colby, S. […] wherein • Pa+b is the percentage effect of the mixture expected from additive contribution of the individual components, • Pa is the observed percentage effect of the first active ingredient at the same use rate as in the mixture, and Pb is the observed percentage effect of the second active ingredient at the same use rate as in the mixture."}, "winter wheat (TRZAW) [2]": {"test_system": "winter wheat (TRZAW)", "experiment": "Test J preemergence mixtures of Compound 2 with crop safeners", "type": "in vivo, Triticum aestivum", "parameters": "key to TRZAW Obsd. (observed effect): observed % herbicidal effect", "conditions": "Test J, alone", "excerpt": "as §1"}, "corn (ZEAMD) [3]": {"test_system": "corn (ZEAMD)", "experiment": "Test H preemergence mixtures of compound 2 with crop safeners", "type": "in vivo, Zea mays cv. ‘Pioneer 33G26’", "conditions": "scale 0 to 100", "excerpt": "(§2) Seeds of test plants consisting of winter wheat (TRZAW, Triticum aestivum), corn (ZEAMD, Zea mays cv. ‘Pioneer 33G26’), giant foxtail (SETFA, Setaria faberi), and Italian ryegrass (LOLMU, Lolium multiflorum) were planted into a blend of loam soil and sand and treated preemergence with a directed soil spray using test chemicals formulated in a non-phytotoxic solvent mixture that included a surfactant. Seeds of small-seeded species were planted about 1 cm deep; larger seeds were planted about 2.5 cm deep. […] Balanced fertilizer was applied through the watering system. Treatments consisted of Compound 2 and the above mentioned safeners alone and in combination using a spray volume of 457 L/ha. Each treatment was replicated four times. Treated plants and controls were maintained in a greenhouse for 14 to 21 days, after which time all species were compared to controls and visually evaluated. […] A dash (-) response means no test result. Colby's Equation was used to determine the herbicidal effects expected from the mixtures. Colby's Equation (Colby, S. […] wherein • Pa+b is the percentage effect of the mixture expected from additive contribution of the individual components, • Pa is the observed percentage effect of the first active ingredient at the same use rate as in the mixture, and • Pb is the observed percentage effect of the second active ingredient at the same use rate as in the mixture."}, "giant foxtail (SETFA)": {"test_system": "giant foxtail (SETFA)", "experiment": "Test H preemergence mixtures of compound 2 with crop safeners", "type": "in vivo, Setaria faberi", "conditions": "scale 0 to 100", "excerpt": "as §2"}, "winter wheat (TRZAW) [4]": {"test_system": "winter wheat (TRZAW)", "experiment": "Test I preemergence mixtures of compound 2 with crop safeners", "type": "in vivo, Triticum aestivum", "conditions": "alone", "excerpt": "(§3) Seeds of test plants consisting of winter wheat (TRZAW, Triticum aestivum), corn (ZEAMD, Zea mays cv. ‘Pioneer 33G26’), wild oat (AVEFA, Avena fatua), and Italian ryegrass (LOLMU, Lolium multiflorum) were planted into a blend of loam soil and sand and treated preemergence with a directed soil spray using test chemicals formulated in a non-phytotoxic solvent mixture that included a surfactant. Seeds of small-seeded species were planted about 1 cm deep; larger seeds were planted about 2.5 cm deep. […] Balanced fertilizer was applied through the watering system. Treatments consisted of Compound 2 and the above mentioned safeners alone and in combination using a spray volume of 457 L/ha. Each treatment was replicated four times. Treated plants and controls were maintained in a greenhouse for 14 to 21 days, after which time all species were compared to controls and visually evaluated. […] A dash (-) response means no test result. Colby's Equation was used to determine the herbicidal effects expected from the mixtures. Colby's Equation (Colby, S. […] Pa+b=Pa+Pb−(PaPb/100) wherein • Pa+b is the percentage effect of the mixture expected from additive contribution of the individual components, • Pa is the observed percentage effect of the first active ingredient at the same use rate as in the mixture, and • Pb is the observed percentage effect of the second active ingredient at the same use rate as in the mixture."}, "wild oat (AVEFA)": {"test_system": "wild oat (AVEFA)", "experiment": "Test I preemergence mixtures of compound 2 with crop safeners", "type": "in vivo, Avena fatua", "conditions": "alone", "excerpt": "as §3"}, "winter wheat (TRZAW) [5]": {"test_system": "winter wheat (TRZAW)", "experiment": "Test H preemergence mixtures of compound 2 with crop safeners", "type": "in vivo, Triticum aestivum", "conditions": "scale 0 to 100", "excerpt": "as §2"}, "Italian ryegrass (LOLMU) [6]": {"test_system": "Italian ryegrass (LOLMU)", "experiment": "Test H preemergence mixtures of compound 2 with crop safeners", "type": "in vivo, Lolium multiflorum", "conditions": "scale 0 to 100", "excerpt": "as §2"}, "corn (ZEAMD) [7]": {"test_system": "corn (ZEAMD)", "experiment": "Test I preemergence mixtures of compound 2 with crop safeners", "type": "in vivo, Zea mays cv. ‘Pioneer 33G26’", "conditions": "alone", "excerpt": "as §3"}, "Italian ryegrass (LOLMU) [8]": {"test_system": "Italian ryegrass (LOLMU)", "experiment": "Test I preemergence mixtures of compound 2 with crop safeners", "type": "in vivo, Lolium multiflorum", "conditions": "alone", "excerpt": "as §3"}, "[9]": {"conditions": "cloquintocet-mexyl alone 8 g a.i./ha"}, "[10]": {"conditions": "cloquintocet-mexyl alone 16 g a.i./ha"}, "[11]": {"conditions": "cloquintocet-mexyl alone 31 g a.i./ha"}}}
{"smiles": "CC(C)(C)c1ccc(C(=O)O)cc1", "note": "[4-t-butyl benzoic acid]", "values": [{"measurement": "ZEAMD Obsd. (observed effect)", "setting": "corn (ZEAMD) [1]; 8 g a.i./ha", "value": 0}, {"measurement": "ZEAMD Obsd. (observed effect)", "setting": "corn (ZEAMD) [1]; 31 g a.i./ha", "value": 0}, {"measurement": "ZEAMD Obsd. (observed effect)", "setting": "corn (ZEAMD) [1]; 125 g a.i./ha", "value": 0}, {"measurement": "ZEAMD Obsd. (observed effect)", "setting": "corn (ZEAMD) [1]; 500 g a.i./ha", "value": 0}, {"measurement": "TRZAW Obsd. (observed effect)", "setting": "winter wheat (TRZAW) [2]; 8 g a.i./ha", "value": 0}, {"measurement": "TRZAW Obsd. (observed effect)", "setting": "winter wheat (TRZAW) [2]; 31 g a.i./ha", "value": 0}, {"measurement": "TRZAW Obsd. (observed effect)", "setting": "winter wheat (TRZAW) [2]; 125 g a.i./ha", "value": 0}, {"measurement": "TRZAW Obsd. (observed effect)", "setting": "winter wheat (TRZAW) [2]; 500 g a.i./ha", "value": 0}]}
{"smiles": "CCCCCC(C)OC(=O)COc1ccc(Cl)c2cccnc12", "note": "(stereo not shown) [cloquintocet-mexyl]", "values": [{"measurement": "Plant response rating ZEAMD Obsd.", "setting": "corn (ZEAMD) [3]; [9]", "value": 0}, {"measurement": "Plant response rating ZEAMD Obsd.", "setting": "corn (ZEAMD) [3]; [10]", "value": 0}, {"measurement": "Plant response rating ZEAMD Obsd.", "setting": "corn (ZEAMD) [3]; [11]", "value": 0}, {"measurement": "Plant response rating SETFA Obsd.", "setting": "giant foxtail (SETFA); [9]", "value": 5}, {"measurement": "Plant response rating SETFA Obsd.", "setting": "giant foxtail (SETFA); [10]", "value": 3}, {"measurement": "Plant response rating SETFA Obsd.", "setting": "giant foxtail (SETFA); [11]", "value": 8}, {"measurement": "TRZAW Obsd. (observed effect)", "setting": "winter wheat (TRZAW) [4]; 4 g a.i./ha", "value": 0}, {"measurement": "TRZAW Obsd. (observed effect)", "setting": "winter wheat (TRZAW) [4]; 8 g a.i./ha", "value": 0}, {"measurement": "AVEFA Obsd. (observed effect)", "setting": "wild oat (AVEFA); 4 g a.i./ha", "value": 0}, {"measurement": "AVEFA Obsd. (observed effect)", "setting": "wild oat (AVEFA); 8 g a.i./ha", "value": 0}, {"measurement": "Plant response rating TRZAW Obsd.", "setting": "winter wheat (TRZAW) [5]; [9]", "value": 0}, {"measurement": "Plant response rating TRZAW Obsd.", "setting": "winter wheat (TRZAW) [5]; [10]", "value": 0}, {"measurement": "Plant response rating TRZAW Obsd.", "setting": "winter wheat (TRZAW) [5]; [11]", "value": 0}, {"measurement": "Plant response rating LOLMU Obsd.", "setting": "Italian ryegrass (LOLMU) [6]; [9]", "value": 0}, {"measurement": "Plant response rating LOLMU Obsd.", "setting": "Italian ryegrass (LOLMU) [6]; [10]", "value": 8}, {"measurement": "Plant response rating LOLMU Obsd.", "setting": "Italian ryegrass (LOLMU) [6]; [11]", "value": 0}, {"measurement": "ZEAMD Obsd. (observed effect)", "setting": "corn (ZEAMD) [7]; 4 g a.i./ha", "value": 0}, {"measurement": "ZEAMD Obsd. (observed effect)", "setting": "corn (ZEAMD) [7]; 8 g a.i./ha", "value": 0}, {"measurement": "LOLMU Obsd. (observed effect)", "setting": "Italian ryegrass (LOLMU) [8]; 4 g a.i./ha", "value": 0}, {"measurement": "LOLMU Obsd. (observed effect)", "setting": "Italian ryegrass (LOLMU) [8]; 8 g a.i./ha", "value": 0}]}
